32 molecules from patent US10988451B2, “MCL-1 inhibitors” (Gilead Sciences, Inc., priority 2018, dated 2021) can be followed below.

MCL-1/Bim, sequence (Q07820 171-327): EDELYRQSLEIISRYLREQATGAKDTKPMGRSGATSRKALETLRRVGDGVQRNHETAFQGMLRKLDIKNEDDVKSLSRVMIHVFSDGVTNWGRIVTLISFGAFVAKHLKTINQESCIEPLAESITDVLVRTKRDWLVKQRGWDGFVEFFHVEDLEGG

The first assay addresses MCL-1/Bim (Homo sapiens (Human), UniProt Q07820). Description: MCL-1/Bim Binding AlphaLISA Assay. The following applies: 6xHis-Mcl-1 (171-327) and biotinylated Bim peptide (51-76). Here is the method:
MCL-1/Bim Binding AlphaLISA Assay.
Inhibition of the MCL-1 and Bim interaction was measured in the following AlphaLISA assay.
Recombinant human MCL-1 protein (C-terminal 6×His Tagged Mcl-1 containing residues 171-327) was generated at Gilead Sciences, Inc. (Foster City, Calif.). A biotinylated peptide derived from human Bim (residues 51-76) was purchased from CPC Scientific (Sunnyvale, Calif.). (CPC 834113). AlphaLISA anti-6His-acceptor beads (AL128R), AlphaScreen Streptavidin donor beads (6760002B), and Proxiplate-384 Plus (6008289) were purchased from PerkinElmer.
The AlphaLISA assay was performed in a 384-well Proxiplate in a total volume of 40 μL. The reaction mixture contained 0.0625 nM 6× His-Mcl-1 (171-327), 0.0625 nM biotinylated-Bim peptide, 10 μg/mL AlphaLISA anti-6×His-AlphaLISA acceptor beads, 40 μg/mL AlphaScreen streptavidin donor beads, and serially diluted test compounds in the binding buffer (20 mM Hepes, pH 7.5 (Teknova H1035); 150 mM NaCl (Promega V4221); 0.002% Brij 35 (Thermo Scientific 20150); 1 mM Dithiothreitol (DTT) Solution (Affymetrix 70726); 0.01% BSA (BioLabs B9000S)). 1,000× test compounds were pre-spotted onto 384-well Proxiplate (Labcyte Echo) by Echo 555 Liquid Handler (Labcyte Inc., San Jose, Calif.) followed by incubation of 5 μl Mcl-1(171-327) for 1 hour. Then 5 μL Bim (51-76) was added and incubated for 2 hours. Five μL AlphaLISA anti-6His-AlphaLISA acceptor beads were then added for 1 hour followed by addition of 5 μL AlphaScreen streptavidin donor beads for 1 hour. The reaction plates were then read on an Envision multimode reader (PerkinElmer) using AlphaScreen settings. […] Percent inhibition was calculated as shown below: % Inhibition=100%*(Well−Neg)/(Pos−Neg) Neg: negative control, DMSO Pos: positive control, no Mcl-1 protein, no biotinylated-Bim peptide
Regarding `CCC(=O)NS1(=O)=NC(=O)c2ccc3c(c2)N(C[C@@H]2CC[C@H]2[C@@H](OC)/C=C/CCC1)C[C@@]1(CCCc2cc(Cl)ccc21)CO3` (single isomer, unassigned) [Example 4], the IC50 was 0.7 nM. The molecule `CCOC(=O)NS1(=O)=NC(=O)c2ccc3c(c2)N(C[C@@H]2CC[C@H]2[C@@H](OC)/C=C/CCC1)C[C@@]1(CCCc2cc(Cl)ccc21)CO3` (single isomer, unassigned) [Example 10] showed a half-maximal inhibitory concentration (IC50) of 3.6 nM.

As to `CCC(=O)N[S@]1(=O)=NC(=O)c2ccc3c(c2)N(C[C@@H]2CC[C@H]2[C@@H](OC)/C=C/CCC1)C[C@@]1(CCCc2cc(Cl)ccc21)CO3` [Example 3], the IC50 stood at 4.1 nM. Same read-out and setting: then `CO[C@H]1/C=C/CCC[S@@](N)(=O)=NC(=O)c2ccc3c(c2)N(C[C@@H]2CC[C@H]21)C[C@@]1(CCCc2cc(Cl)ccc21)CO3` [Example 5], with 60.2 nM.

Take `CCOC(=O)N[S@]1(=O)=NC(=O)c2ccc3c(c2)N(C[C@@H]2CC[C@H]2[C@@H](OC)/C=C/CCC1)C[C@@]1(CCCc2cc(Cl)ccc21)CO3` [Example 9]: the IC50 amounted to 6.6 nM.

`CCC(=O)N[S@@]1(=O)=NC(=O)c2ccc3c(c2)N(C[C@@H]2CC[C@H]2[C@@H](OC)CCCCC1)C[C@@]1(CCCc2cc(Cl)ccc21)CO3` [Example 11]: the IC50 is 6.5 nM. Same read-out and setting: then `CCNC(=O)N[S@@]1(=O)=NC(=O)c2ccc3c(c2)N(C[C@@H]2CC[C@H]2[C@@H](OC)CCCCC1)C[C@@]1(CCCc2cc(Cl)ccc21)CO3` [Example 13], with 1.8 nM; and `CCNC(=O)N[S@@]1(=O)=NC(=O)c2ccc3c(c2)N(C[C@@H]2CC[C@H]2[C@@H](OC)CCCCC1)C[C@@]1(CCCc2cc(Cl)ccc21)CO3` [Example 14], with 0.3 nM; and `CCC(=O)N[S@@]1(=O)=NC(=O)c2ccc3c(c2)N(C[C@@H]2CC[C@H]2[C@@H](OC)CCCCC1)C[C@@]1(CCCc2ccccc21)CO3` [Example 16], with 4.2 nM. Still for that read-out and setting: to `CCC(=O)N[S@@]1(=O)=NC(=O)c2ccc3c(c2)N(C[C@@H]2CC[C@H]2[C@@H](O)/C=C/CCC1)C[C@@]1(CCCc2cc(Cl)ccc21)CO3` [Example 62] belongs 0.4 nM; to `CCC(=O)N[S@]1(=O)=NC(=O)c2ccc3c(c2)N(C[C@@H]2CC[C@H]2[C@@H](O)/C=C/CCC1)C[C@@]1(CCCc2cc(Cl)ccc21)CO3` [Example 63], 1.4 nM. Still for that read-out and setting: then `CCC(=O)N[S@]1(=O)=NC(=O)c2ccc3c(c2)N(C[C@@H]2CC[C@H]2[C@@H](OC)/C=C/CCCC1)C[C@@]1(CCCc2cc(Cl)ccc21)CO3` [Example 69], with 4 nM; and `CO[C@H]1/C=C/C[C@H](C)C[S@@](=O)(NC(=O)NCC2CC2)=NC(=O)c2ccc3c(c2)N(C[C@@H]2CC[C@H]21)C[C@@]1(CCCc2cc(Cl)ccc21)CO3` [Example 107], with 0.1 nM.

A further assay has as its system SKBR3 cells. The experiment in a line: SKBR3 Cell Viability Assay. The format is cell-based. The following applies: 72 hours, CellTiter Glo, read-out: MCL-1 CV SKBR3 EC50. The procedure:
SKBR3 Cell Viability Assay Materials
SKBR3 Cells (ATCC HTB-30) were obtained from ATCC (Manassas, Va.) and cultured in McCoy 5A's medium (ATCC 30-2007)+10% fetal bovine serum (SH30071.03, HyClone, Pittsburgh, Pa.) plus 1× Penicillin-Streptomycin L-glutamine (Corning 30-009-C1, Corning, N.Y.)).
The cell viability assay was conducted in a 384-well tissue culture plate (Grenier 781086, Monroe, N.C.) in a total volume of 70 μL. Test compounds were prepared in 1,000×, serially diluted, and pre-spotted into 384-well tissue culture plate by Echo 555 Liquid Handler (Labcyte Inc., San Jose, Calif.). Seventy μ1 of 6,000 SKBR3 cells were dispensed into each well of the plate and incubated at 37° C. with 5% CO2 for 72 hours. At the end of incubation, 2× CellTiter Glo (CTG) reagents (1 part buffer with 2 parts substrate) (Promega, Madison, Wis.) were prepared, and the plate and the reagent were equilibrated to room temperature for 30 minutes. CTG reagent was added to each plate by Biomek FX at 20 μL/well with 5 times pipetting and mixing to induce cell lysis. Luminescence was read by Envision multimode reader (PerkinElmer). […] Percent inhibition was calculated as followed: % Inhibition=100%*(Well−Neg)/(Pos−Neg) Neg, negative control, DMSO Pos, positive control, 10 μM Puromycin
On to `CO[C@H]1/C=C/CCC[S@@](=O)(NC(=O)CC2CC2)=NC(=O)c2ccc3c(c2)N(C[C@@H]2CC[C@H]21)C[C@@]1(CCCc2cc(Cl)ccc21)CO3` [Example 21], for which the EC50 worked out at 1300 nM. Still for that read-out and setting: then `CO[C@H]1/C=C/CCC[S@@](=O)(NC(=O)CC(F)(F)F)=NC(=O)c2ccc3c(c2)N(C[C@@H]2CC[C@H]21)C[C@@]1(CCCc2cc(Cl)ccc21)CO3` [Example 23], with 1450 nM; and `CO[C@H]1/C=C/CCC[S@@](=O)(NC(=O)C2COC2)=NC(=O)c2ccc3c(c2)N(C[C@@H]2CC[C@H]21)C[C@@]1(CCCc2cc(Cl)ccc21)CO3` [Example 24], with 891 nM. On the same count and under the same terms, to `CO[C@H]1/C=C/CCC[S@@](=O)(NC(=O)C2CC2)=NC(=O)c2ccc3c(c2)N(C[C@@H]2CC[C@H]21)C[C@@]1(CCCc2cc(Cl)ccc21)CO3` [Example 27] belongs 2080 nM; to `CO[C@H]1/C=C/CCC[S@@](=O)(NC(=O)CCS(C)(=O)=O)=NC(=O)c2ccc3c(c2)N(C[C@@H]2CC[C@H]21)C[C@@]1(CCCc2cc(Cl)ccc21)CO3` [Example 28], 8410 nM; to `CO[C@H]1/C=C/CCC[S@@](=O)(NC(=O)Cc2ccnn2C)=NC(=O)c2ccc3c(c2)N(C[C@@H]2CC[C@H]21)C[C@@]1(CCCc2cc(Cl)ccc21)CO3` [Example 29], 1840 nM. The same measure, in the same setting: then `CO[C@H]1/C=C/CCC[S@@](=O)(NC(=O)Cc2ncccn2)=NC(=O)c2ccc3c(c2)N(C[C@@H]2CC[C@H]21)C[C@@]1(CCCc2cc(Cl)ccc21)CO3` [Example 30], with 1840 nM. On to `CO[C@H]1/C=C/CCC[S@@](=O)(NC(=O)C2CCC2)=NC(=O)c2ccc3c(c2)N(C[C@@H]2CC[C@H]21)C[C@@]1(CCCc2cc(Cl)ccc21)CO3` [Example 31], for which the EC50 was 2590 nM. Still for that read-out and setting: to `COC1CCn2cc(C(=O)N[S@@]3(=O)=NC(=O)c4ccc5c(c4)N(C[C@@H]4CC[C@H]4[C@@H](OC)/C=C/C[C@H](C)C3)C[C@@]3(CCCc4cc(Cl)ccc43)CO5)cc2C1` (some centres unmarked) [Example 175] belongs 33.9 nM; to `CO[C@H]1/C=C/C[C@H](C)C[S@@](=O)(NC(=O)c2cc3n(c2)CCc2c-3cnn2C)=NC(=O)c2ccc3c(c2)N(C[C@@H]2CC[C@H]21)C[C@@]1(CCCc2cc(Cl)ccc21)CO3` [Example 208], 45 nM; to `CO[C@H]1/C=C/C[C@H](C)C[S@@](=O)(NC(=O)N2C[C@@H](OC)[C@@H]2C)=NC(=O)c2ccc3c(c2)N(C[C@@H]2CC[C@H]21)C[C@@]1(CCCc2cc(Cl)ccc21)CO3` [Example 253], 39.2 nM. The same measure, in the same setting: to `COC1CN(C(=O)N[S@@]2(=O)=NC(=O)c3ccc4c(c3)N(C[C@@H]3CC[C@H]3[C@@H](O)/C=C/C[C@H](C)C2)C[C@@]2(CCCc3cc(Cl)ccc32)CO4)C1` [Example 266] belongs 53.8 nM; to `COc1ccc(C(=O)N[S@@]2(=O)=NC(=O)c3ccc4c(c3)N(C[C@@H]3CC[C@H]3[C@@H](OC)/C=C/C[C@H](C)C2)C[C@@]2(CCCc3cc(Cl)ccc32)CO4)cc1` [Example 273], 81 nM. `CO[C@H]1/C=C/C[C@H](C)C[S@@](=O)(NC(=O)N2CC(OC(=O)N(C)C)C2)=NC(=O)c2ccc3c(c2)N(C[C@@H]2CC[C@H]21)C[C@@]1(CCCc2cc(Cl)ccc21)CO3` [Example 292]: the EC50 is 45.1 nM. The same measure, in the same setting: to `CO[C@H]1/C=C/C[C@H](C)C[S@@](=O)(NC(=O)c2cn(C)nc2OCCN2CCOCC2)=NC(=O)c2ccc3c(c2)N(C[C@@H]2CC[C@H]21)C[C@@]1(CCCc2cc(Cl)ccc21)CO3` [Example 319] belongs 19.9 nM; to `CO[C@H]1/C=C\C[C@H](C)[C@@H](C)[S@@](=O)(NC(=O)COC2CCOCC2)=NC(=O)c2ccc3c(c2)N(C[C@@H]2CC[C@H]21)C[C@@]1(CCCc2cc(Cl)ccc21)CO3` [Example 406], 332 nM.

The assay is the same for the next values; noted with them: Homo sapiens, SK-BR-3, 72 h, CellTiter Glo, read-out: MCL-1 CV SKBR3 EC50.
In the case of `COc1nn(C)cc1C(=O)NS1(=O)=NC(=O)c2ccc3c(c2)N(C[C@@H]2CC[C@H]2[C@@H](OC)/C=C/C[C@H](C)C1)C[C@@]1(CCCc2cc(Cl)ccc21)CO3` (single isomer, unassigned) [Example 388], the EC50 turned out to be 1400 nM. Turning to `COc1nn(C)cc1C(=O)N[S@@]1(=O)=NC(=O)c2ccc3c(c2)N(C[C@@H]2CC[C@H]2[C@@H](OC)/C=C/C[C@H](C)C1)C[C@@]1(CCCc2cc(Cl)ccc21)CO3` [Example 154], the EC50 amounted to 24.1 nM.

For `CO[C@H]1/C=C/C[C@H](C)C[S@@](=O)(NC(=O)c2cc3n(c2F)CCOC3)=NC(=O)c2ccc3c(c2)N(C[C@@H]2CC[C@H]21)C[C@@]1(CCCc2cc(Cl)ccc21)CO3` [Example 174], the EC50 amounted to 103 nM.
